In ChEMBL document CHEMBL1144770, “Synthesis, SAR and in vitro evaluation of new cyclic Arg-Gly-Asp pseudopentapeptides containing a s-cis peptide bond as integrin alphavbeta3 and alphavbeta5 ligands” (Bioorg Med Chem, 2008):

How the values were obtained:
Integrin alpha-V/beta-5 = Integrin alpha-V/beta-5 (Homo sapiens, UniProt P06756+P18084); assay: Displacement of [125I]Echistatin from human placental integrin alpha-V-beta-5 receptor
Integrin alpha-V/beta-3 = Integrin alpha-V/beta-3 (Homo sapiens, UniProt P05106+P06756); assay: Displacement of [125I]echistatin from human placental integrin alphaVbeta3 receptor
Chain of Integrin alpha-V/beta-3 (P05106 27-788 limits assumed): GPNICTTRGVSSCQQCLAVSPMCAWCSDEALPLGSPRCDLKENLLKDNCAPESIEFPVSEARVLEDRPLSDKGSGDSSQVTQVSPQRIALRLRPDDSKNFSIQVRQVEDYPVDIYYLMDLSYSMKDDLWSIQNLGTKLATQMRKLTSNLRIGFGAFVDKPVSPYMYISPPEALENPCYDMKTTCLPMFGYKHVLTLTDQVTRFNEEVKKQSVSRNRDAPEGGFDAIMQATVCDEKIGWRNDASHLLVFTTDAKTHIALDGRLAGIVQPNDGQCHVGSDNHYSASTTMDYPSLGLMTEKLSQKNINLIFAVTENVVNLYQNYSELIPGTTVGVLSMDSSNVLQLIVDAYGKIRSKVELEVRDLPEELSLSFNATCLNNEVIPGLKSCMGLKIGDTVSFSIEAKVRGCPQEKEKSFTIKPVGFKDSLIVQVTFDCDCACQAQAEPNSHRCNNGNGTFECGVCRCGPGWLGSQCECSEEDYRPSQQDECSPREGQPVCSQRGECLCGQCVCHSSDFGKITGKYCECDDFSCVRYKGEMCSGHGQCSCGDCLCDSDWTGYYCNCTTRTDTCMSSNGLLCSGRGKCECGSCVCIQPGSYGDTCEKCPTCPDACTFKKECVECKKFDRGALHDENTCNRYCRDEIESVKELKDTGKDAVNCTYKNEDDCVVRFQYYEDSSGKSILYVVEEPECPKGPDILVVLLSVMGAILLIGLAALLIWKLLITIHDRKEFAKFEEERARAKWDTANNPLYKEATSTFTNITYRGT
Chain of Integrin alpha-V/beta-3 (P06756 31-889 limits assumed): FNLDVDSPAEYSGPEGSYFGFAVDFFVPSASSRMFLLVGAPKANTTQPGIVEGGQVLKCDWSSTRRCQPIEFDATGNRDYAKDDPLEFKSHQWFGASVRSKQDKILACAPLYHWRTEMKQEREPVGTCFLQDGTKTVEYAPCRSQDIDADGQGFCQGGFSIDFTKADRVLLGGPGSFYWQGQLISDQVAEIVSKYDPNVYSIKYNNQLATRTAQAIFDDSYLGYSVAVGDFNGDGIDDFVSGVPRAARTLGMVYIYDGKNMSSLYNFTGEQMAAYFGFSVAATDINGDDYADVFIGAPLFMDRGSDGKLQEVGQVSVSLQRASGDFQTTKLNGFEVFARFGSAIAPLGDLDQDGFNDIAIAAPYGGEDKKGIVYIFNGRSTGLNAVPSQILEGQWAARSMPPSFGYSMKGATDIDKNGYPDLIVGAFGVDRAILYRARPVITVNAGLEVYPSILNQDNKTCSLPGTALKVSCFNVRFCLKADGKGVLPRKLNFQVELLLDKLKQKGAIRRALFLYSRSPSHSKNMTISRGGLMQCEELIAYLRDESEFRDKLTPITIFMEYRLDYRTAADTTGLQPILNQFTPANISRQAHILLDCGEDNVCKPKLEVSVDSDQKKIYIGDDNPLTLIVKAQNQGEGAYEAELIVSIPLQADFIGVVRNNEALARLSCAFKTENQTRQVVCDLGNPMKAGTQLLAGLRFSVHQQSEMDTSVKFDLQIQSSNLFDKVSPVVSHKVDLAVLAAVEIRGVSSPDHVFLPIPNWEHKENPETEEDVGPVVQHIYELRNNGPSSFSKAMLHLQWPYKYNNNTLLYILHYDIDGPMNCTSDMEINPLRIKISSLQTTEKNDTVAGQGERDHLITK
Chain of Integrin alpha-V/beta-3 (P06756 891-1048 limits assumed): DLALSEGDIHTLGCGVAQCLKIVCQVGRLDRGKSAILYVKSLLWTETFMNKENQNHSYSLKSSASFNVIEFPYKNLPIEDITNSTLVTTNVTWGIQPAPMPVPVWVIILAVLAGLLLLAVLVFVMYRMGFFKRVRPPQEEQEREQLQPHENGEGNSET

Chain of Integrin alpha-V/beta-5 (P06756 31-889 limits assumed): as the sequence (P06756 31-889 limits assumed) above
Chain of Integrin alpha-V/beta-5 (P06756 891-1048 limits assumed): as the sequence (P06756 891-1048 limits assumed) above
Chain of Integrin alpha-V/beta-5 (P18084 24-799 limits assumed): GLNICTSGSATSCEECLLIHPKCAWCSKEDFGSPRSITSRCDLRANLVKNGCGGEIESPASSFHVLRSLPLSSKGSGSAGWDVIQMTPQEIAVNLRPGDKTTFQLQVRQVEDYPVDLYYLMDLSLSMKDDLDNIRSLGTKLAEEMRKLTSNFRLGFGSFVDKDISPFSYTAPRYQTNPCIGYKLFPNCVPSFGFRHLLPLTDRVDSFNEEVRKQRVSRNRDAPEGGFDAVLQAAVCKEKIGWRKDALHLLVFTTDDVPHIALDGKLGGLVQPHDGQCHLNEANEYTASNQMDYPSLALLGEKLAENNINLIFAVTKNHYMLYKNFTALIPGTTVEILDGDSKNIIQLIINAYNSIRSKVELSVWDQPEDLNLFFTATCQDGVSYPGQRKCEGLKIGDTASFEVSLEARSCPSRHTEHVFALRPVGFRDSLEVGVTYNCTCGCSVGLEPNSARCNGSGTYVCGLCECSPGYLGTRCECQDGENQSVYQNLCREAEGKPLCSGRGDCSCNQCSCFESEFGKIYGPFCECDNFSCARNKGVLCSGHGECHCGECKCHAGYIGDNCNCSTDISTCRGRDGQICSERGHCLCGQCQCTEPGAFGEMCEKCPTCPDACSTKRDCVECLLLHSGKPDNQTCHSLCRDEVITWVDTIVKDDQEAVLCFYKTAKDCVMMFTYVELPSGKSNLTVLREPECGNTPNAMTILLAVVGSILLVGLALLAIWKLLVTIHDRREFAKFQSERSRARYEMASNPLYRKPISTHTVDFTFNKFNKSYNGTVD

Row | SMILES | IC50 (Integrin alpha-V/beta-5) [nM] | IC50 (Integrin alpha-V/beta-3) [nM]
1 | NC(N)=NCCC[C@@H]1NC(=O)[C@]23CCCN2C(=O)[C@@H](C3)NC(=O)[C@H](CC(=O)O)NC(=O)CNC1=O | 7960 | 2150
2 | N=C(N)NCCC[C@@H]1NC(=O)[C@@]23CCCN2C(=O)[C@H](C3)NC(=O)[C@H](CC(=O)O)NC(=O)CNC1=O | 14.3 | 34.4
